Entries after “also recorded” stand apart in the source; their conditions may differ.
Columns and labels:
germinal center B cells = test: Flow cytometric analysis of germinal center B cells from immunized mice treated with CGS-21680 (Experiments 1 and 3); assay type: in vivo
Protocol: All mice were sacrificed on day 6.
All mice were sacrificed on day 21.
Flow cytometric analysis of germinal center B cells from Experiment 1 (gated as lymphocytes, B220+, Gl-7 positive, CD38 negative; FIGS. 10E and 10F) and Experiment 3 (B220 positive, Gl-7 hi, IgD-negative; FIG. 10D) was performed. The flow cytometric analysis was performed according to the protocol discussed in Example.

resting B cells = test: In vitro class switch recombination IgM to IgG1 in resting B cells stimulated with anti-CD40 and IL-4; assay type: cell-based, mice; settings: four days in culture; for class switching of IgM to IgG1: gated on B220+, vs untreated B cells
Protocol: Female C57 B/6 mice were sacrificed and spleens harvested and generated into single cell suspensions. Lymphocytes were isolated using Ficoll separation (GE Healthcare) and interface layer was collected after centrifugation (1000×g for 10 minutes). Cells were FC Blocked as described above and then stained with CD43 FITC (clone S7) and then washed and stained with anti-FITC microbeads (Miltenyi) at 4° C. for 30 minutes. Cells were then depleted using magnetic separation autoMACS deplete(s) program (Miltenyi). The depleted fraction was used for experiments as these consist of resting B cells.
B cells plated in a 24 well plate at 200,000 cells pre well with IMDM media, as described in Example 3 (1 ml media/well). B cells were then stimulated using anti-CD40 antibody (2.5 μg/ml clone IC-10 eBiosciences) and recombinant mouse IL-4 (10 ng/ml, R&D). […] All stimulating reagents were added at the seeding of the culture on day 0 and no other drugs were added thereafter.
After four days in culture, amount of class switch to IgG1 was determined by flow cytometric analysis by staining with anti-mouse IgM, IgG1, and B220. Plots are all gated on B220+ cells (FIG. 8A-8F)

[1] = tested on: Gs coupled protein receptor; settings: dopamine at day 44 and day 62 plus inspiration of hyperoxic gas mixture; day 47 and day 65; vs untreated mice
Protocol: 12 male wild type C57 B/6 mice 10-12 weeks of age are immunized as described in Example 1. At day 21, the mice are given an immune boost of 1 μg NP-OVA with adjuvant via intraperitoneal injection. At day 42, the mice are given an immune challenge of 1 μg NP-OVA without adjuvant via tail vein injection. […] Samples at 5 days and 23 days post immune challenge (i.e., day 47 and day 65 of the assay) will be subjected to ELISA measurement for NIP-25.

[2] = Experiment 1, 5 subcutaneous injections 1 mg/kg days 4-6, sacrificed day 6

Compound | amount of class switched NP-PE binding cells (germinal center B cells; [2]) | proportion of class switched IgG1 germinal center B cells (germinal center B cells; [2]) | proportion of class switched IgG1 germinal center B cells (germinal center B cells; Experiment 1, 5 subcutaneous injections 1 mg/kg days 4-6, sacrificed day 6, listed as CGS-21680) | frequency of germinal center B cells (germinal center B cells; Experiment 3, 1 mg/kg subcutaneous twice daily day 8-20, sacrificed day 21, compared to control) | class switching of IgM to IgG1 (resting B cells; 10 μM) | class switching of IgM to IgG1, dependence on concentration (resting B cells; 100 nM, 1 μM, 10 μM) | class switching of IgM to IgG1 (resting B cells; 100 nM) | class switching of IgM to IgG1 (resting B cells; 1 μM) | levels of NIP-25 [1]
CCNC(=O)[C@H]1O[C@@H](n2cnc3c(N)nc(NCCc4ccc(CCC(=O)O)cc4)nc32)[C@H](O)[C@@H]1O [CGS21680] | higher amount | enhanced class switching | increased proportion | decrease | has class switching |  |  |  | 
CCNC(=O)[C@H]1O[C@@H](n2cnc3c(N)ncnc32)[C@H](O)[C@@H]1O [NECA, N-ethylcarboxyamidoadenosine] |  |  |  |  | has class switching | class switching increases as the concentration of NECA increases | increases the class switching; also recorded: has class switching | has class switching | 
NCCc1ccc(O)c(O)c1 [dopamine] |  |  |  |  |  |  |  |  | higher levels
